SMILES strings stand for the structures.

We go through 77 compounds from patent US8999956B2, “N-[(het)arylalkyl)] pyrazole(thio)carboxamides and their heterosubstituted analogues” (Bayer Intellectual Property GmbH, priority 2010, dated 2015).

This data set in a line: log P by HPLC on reversed-phase column (EEC Directive 79/831 Annex V.A8). Type of data set: physicochemical. As for the experimental part: In table 1, the log P values were determined in accordance with EEC Directive 79/831 Annex V.A8 by HPLC (High Performance Liquid Chromatography) on a reversed-phase column (C18), using the method described below: Temperature: 40° C.; […]

Compound `CCCC1CCCCC1NC(=S)c1c(C(F)F)nn(C)c1F` (centres unmarked) [Example 345] returned a logP of 4.21.
Same read-out and setting: for `Cn1nc(C(F)F)c(C(=O)N(CC#Cc2cc3ccccc3o2)C2CC2)c1F` [Example 275] the value was 3.55; for `CC(CCc1ncc(C(F)(F)F)cc1Cl)N(C(=O)c1c(C(F)F)nn(C)c1F)C1CC1` (centres unmarked) [Example 86], 3.92.
Same read-out and setting: the value for `Cc1ccc(CCCN(C(=O)c2c(C(F)F)nn(C)c2F)C2CC2)s1` [Example 113] was 3.44; that for `CCCN(CC(=O)Nc1c(Cl)cc(Cl)cc1Cl)C(=O)c1c(C(F)F)nn(C)c1F` [Example 200] was 2.96.
`Cn1nc(C(F)F)c(C(=O)N(CC#Cc2ccccc2)C(C)(C)C)c1F` [Example 267] showed a logP of 3.83.
For `Cn1nc(C(F)F)c(C(=S)NC2CCCCC2CCC(C)(C)C)c1Cl` (centres unmarked) [Example 356], the logP came out at 5.60.
In turn, `CCCN(CCCOc1c(C)cc(C)cc1C)C(=O)c1c(C(F)F)nn(C)c1Cl` [Example 234] registered a logP of 4.39.
Still for that read-out and setting: for `Cc1ccc2sc(C#CCN(C(=O)c3c(C(F)F)nn(C)c3F)C3CC3)cc2c1` [Example 285] the value was 4.26; for `Cc1ccc(C(C)CCN(C(=O)c2c(C(F)F)nn(C)c2F)C2CC2)o1` (centres unmarked) [Example 107], 3.41.
Same read-out and setting: the value for `Cn1nc(C(F)F)c(C(=O)NCCOc2ccc(-c3ccccc3)cc2)c1Cl` [Example 26] was 3.60; that for `CCCN(CCOc1c(Cl)cc(Cl)cc1Cl)C(=O)c1c(C(F)F)nn(C)c1F` [Example 204] was 4.37; that for `COCCCCNC(=O)c1c(C(F)F)nn(C)c1F` [Example 305] was 1.40.
Consider `Cn1nc(C(F)F)c(C(=O)NC(COc2ccc3ccccc3c2)C2CC2)c1Cl` (racemic) [Example 138], for which the logP was found to be 3.94.
The compound `CC(CCc1ncc(C(F)(F)F)cc1Cl)N(C(=O)c1c(C(F)F)nn(C)c1Cl)C1CC1` (centres unmarked) [Example 85] gave a logP of 4.11.
Same read-out and setting: for `Cc1ccc(C(C)CCN(C)C(=O)c2c(C(F)F)nn(C)c2Cl)o1` (centres unmarked) [Example 110] the value was 3.02.
On the same count and under the same terms, for `CCCCC1CCCC1NC(=S)c1c(C(F)F)nn(C)c1F` (centres unmarked) [Example 308] the value was 4.39; for `CCCN(C(=O)c1c(C(F)F)nn(C)c1F)C(C)COc1ccccc1-c1ccccc1` (centres unmarked) [Example 30], 4.32; for `CC(COc1c(Cl)cc(Cl)cc1Cl)NC(=O)c1c(C(F)F)nn(C)c1Cl` (centres unmarked) [Example 211], 4.20.
Compound `CCCCC1CCCCC1NC(=S)c1c(C(F)F)nn(C)c1F` (centres unmarked) [Example 332] gave a logP of 4.86.
With `Cn1nc(C(F)F)c(C(=O)N(C2CC2)C2CCCCC2C2CCCCC2)c1Cl` (centres unmarked) [Example 373], the logP is 5.59.
`CCN(CC=Cc1ccccc1)C(=O)c1c(C(F)F)nn(C)c1Cl` [Example 263] came in with a logP of 3.17.
As for `CON(CCC(C)c1ccc(C)o1)C(=O)c1c(C(F)F)nn(C)c1Cl` (centres unmarked) [Example 111], the logP was found to be 3.29.
Still for that read-out and setting: the value for `Cn1nc(C(F)F)c(C(=S)NC2CCCC2CCC(C)(C)C)c1F` (centres unmarked) [Example 321] was 5.01.
The same measure, in the same setting: for `Cc1ccc(C#CCN(C(=O)c2c(C(F)F)nn(C)c2F)C2CC2)s1` [Example 286] the value was 3.37; for `Cn1nc(C(F)F)c(C(=O)N(CC#Cc2ccco2)C2CC2)c1F` [Example 279], 2.70.
On the same count and under the same terms, for `Cc1ccsc1CCCN(C(=O)c1c(C(F)F)nn(C)c1F)C1CC1` [Example 105] the value was 3.33; for `CC(C)C(C(=O)OCc1ccccc1)N(C)C(=O)c1c(C(F)F)nn(C)c1F` (centres unmarked) [Example 227], 3.35; for `Cn1nc(C(F)F)c(C(=O)NC2(C(F)(F)F)CCCCC2)c1F` [Example 387], 3.00.
With `C=CCC1CCCCC1N(C(=O)c1c(C(F)F)nn(C)c1Cl)C1CC1` (centres unmarked) [Example 347], the logP came to 4.16.
Same read-out and setting: the value for `CN(CCC(=O)Nc1ccc(Cl)c(Cl)c1)C(=O)c1c(C(F)F)nn(C)c1Cl` [Example 233] was 2.86; that for `C#CC1(NC(=O)c2c(C(F)F)nn(C)c2Cl)CCCCC1` [Example 384] was 2.73.
`CON(CCC(C)c1ccc(C)o1)C(=O)c1c(C(F)F)nn(C)c1F` (centres unmarked) [Example 112]: the logP came to 3.23.
Still for that read-out and setting: for `Cn1nc(C(F)F)c(C(=O)N(CCOc2ccc(Cl)cc2)C2CCCC2)c1F` [Example 55] the value was 4.13.
The same measure, in the same setting: for `Cn1nc(C(F)F)c(C(=O)NC(C)(C)C(=O)Nc2ccccc2)c1Cl` [Example 25] the value was 2.27.
Still for that read-out and setting: for `Cn1nc(C(F)F)c(C(=O)NC2CCCCC2C2CCCCC2)c1Cl` (centres unmarked) [Example 375] the value was 4.56; for `CN(CC=Cc1ccccc1)C(=O)c1c(C(F)F)nn(C)c1Cl` [Example 261], 2.84; for `CCCN(CCOc1ccc(Cl)cc1)C(=O)c1c(C(F)F)nn(C)c1Cl` [Example 54], 3.67.
`CN(CCCc1cccs1)C(=O)c1c(C(F)F)nn(C)c1F` [Example 104] yielded a logP of 2.52.
Same read-out and setting: for `Cn1nc(C(F)F)c(C(=O)N(CC#Cc2ccccc2)C2CCCC2)c1Cl` [Example 274] the value was 3.92.
Still for that read-out and setting: the value for `Cn1nc(C(F)F)c(C(=O)NC(C)(C)C#Cc2ccc(C#N)cc2)c1F` [Example 284] was 2.82; that for `Cn1nc(C(F)F)c(C(=O)NCC#Cc2cc3ccccc3s2)c1F` [Example 277] was 3.19; that for `Cn1nc(C(F)F)c(C(=O)N(CCCc2cc3ccccc3s2)C2CC2)c1F` [Example 94] was 3.79.
Same read-out and setting: the value for `CCC1(C)CC(NC(=O)c2c(C(F)F)nn(C)c2Cl)CC(C)(C)C1` (centres unmarked) [Example 362] was 4.44; that for `Cn1nc(C(F)F)c(C(=O)NC2(C(=O)Nc3ccccc3)CCCC2)c1Cl` [Example 4] was 2.62; that for `Cn1nc(C(F)F)c(C(=O)N(CCOc2ccc(Cl)cc2)C2CCCC2)c1Cl` [Example 51] was 4.32.
In the case of `C#CC1(NC(=O)c2c(C(F)F)nn(C)c2F)CCCCC1` [Example 385], the logP came to 2.56.
In the case of `CC(C)(C)C#Cc1cccc(N)c1` [3-(3,3-dimethylbut-1-yn-1-yl)aniline], where the note is “reversed-phase HPLC column (C18), HPLC, 0.1% aqueous formic acid and acetonitrile, 40° C., read-out: log P”, the chromatographic logP stood at 2.71.
`Cn1nc(C(F)F)c(C(=O)NCCOc2ccc(-c3ccccc3)cc2)c1F` [Example 27] yielded a logP of 3.44.
The same measure, in the same setting: for `CN(CC#Cc1ccccc1)C(=O)c1c(C(F)F)nn(C)c1Cl` [Example 270] the value was 2.92; for `Cc1cc(C)nc(CCC(C)NC(=O)c2c(C(F)F)nn(C)c2Cl)c1` (centres unmarked) [Example 64], 1.81.
The compound `CN(CCCc1cc2ccccc2s1)C(=O)c1c(C(F)F)nn(C)c1F` [Example 96] had a logP of 3.25.
The same measure, in the same setting: the value for `CN(C(=O)c1c(C(F)F)nn(C)c1Cl)C(COc1ccccc1Cl)C1CC1` (racemic) [Example 146] was 3.67; that for `CC(C)C(C(=O)OCc1ccccc1)N(C)C(=O)c1c(C(F)F)nn(C)c1Cl` (centres unmarked) [Example 229] was 3.48; that for `Cn1nc(C(F)F)c(C(=O)NCCOc2cc(Cl)cc(Cl)c2)c1Cl` [Example 118] was 3.55.
Still for that read-out and setting: the value for `Cn1nc(C(F)F)c(C(=O)NCCOc2c(Cl)cc(Cl)cc2Cl)c1Cl` [Example 201] was 3.80; that for `CN(CC#Cc1cc2ccccc2s1)C(=O)c1c(C(F)F)nn(C)c1F` [Example 278] was 3.39.
In turn, `Cc1ccc(C(C)CCN(C)C(=O)c2c(C(F)F)nn(C)c2F)o1` (centres unmarked) [Example 109] returned a logP of 2.88.
For `Cn1nc(C(F)F)c(C(=O)N(CC#Cc2ccccc2)C2CC2)c1Cl` [Example 272], the logP is listed as 3.33.
On the same count and under the same terms, for `CCCN(CCOc1ccc(Cl)cc1)C(=O)c1c(C(F)F)nn(C)c1F` [Example 57] the value was 3.53.
`Cn1nc(C(F)F)c(C(=O)N(CCCC2CC=CO2)C2CC2)c1F` (centres unmarked) [Example 98] displayed a logP of 1.45.
`Cc1cccc(C)c1OCCNC(=O)c1c(C(F)F)nn(C)c1Cl` [Example 152] had a logP of 3.13.
The same measure, in the same setting: the value for `CN(CC(=O)OCc1ccccc1)C(=O)c1c(C(F)F)nn(C)c1Cl` [Example 228] was 2.57; that for `CC(C)N(CC(=O)Nc1ccccc1)C(=O)c1c(C(F)F)nn(C)c1F` [Example 1] was 2.25.
Same read-out and setting: the value for `Cn1nc(C(F)F)c(C(=O)NCCS(=O)(=O)c2ccc(Cl)cc2)c1F` [Example 58] was 2.10; that for `CN(CC#Cc1ccccc1)C(=O)c1c(C(F)F)nn(C)c1F` [Example 269] was 2.78; that for `CCCN(CCOc1ccc(C(=O)OCC)cc1)C(=O)c1c(C(F)F)nn(C)c1Cl` [Example 72] was 3.44.
`Cn1nc(C(F)F)c(C(=O)N(C2CC2)C2CCCCC2C2=CCCCC2)c1Cl` (centres unmarked) [Example 377] came in with a logP of 5.17.
As to `CC(C)N(CCOc1c(Cl)cc(Cl)cc1Cl)C(=O)c1c(C(F)F)nn(C)c1Cl` [Example 208], the logP was found to be 4.71.
Compound `CC(O)C1CCCCC1NC(=O)c1c(C(F)F)nn(C)c1F` (single isomer, unassigned) [Example 342] came in with a logP of 2.08 isomer B.
Still for that read-out and setting: for `CCCN(CC(=O)Nc1c(Cl)cc(Cl)cc1Cl)C(=O)c1c(C(F)F)nn(C)c1Cl` [Example 199] the value was 3.11; for `Cn1nc(C(F)F)c(C(=O)N(CCOc2ccc(Cl)cc2)C2CCC2)c1Cl` [Example 52], 3.99; for `Cc1ccc2sc(CCCN(C(=O)c3c(C(F)F)nn(C)c3F)C3CC3)cc2c1` [Example 106], 4.21.
On the same count and under the same terms, the value for `CC(COc1c(Cl)cc(Cl)cc1Cl)NC(=O)c1c(C(F)F)nn(C)c1F` (centres unmarked) [Example 212] was 3.92; that for `CN(CCCc1cc2ccccc2o1)C(=O)c1c(C(F)F)nn(C)c1F` [Example 93] was 3.00.
Still for that read-out and setting: for `Cn1nc(C(F)F)c(C(=O)NC(CSc2ccccc2)C2CC2)c1Cl` (centres unmarked) [Example 23] the value was 3.44; for `Cn1nc(C(F)F)c(C(=O)N(CC#Cc2ccccc2)C(C)(C)C)c1Cl` [Example 268], 3.96.
